This passage reports log p and chromatographic logP results from US7943774B2 (priority 2008, dated 2011).

The first data set in a line: log P (pH2.3). The format is physicochemical. The settings on record: method [b]: LC-MS, acidic range, pH 2.7, 0.1% aqueous formic acid and acetonitrile.
In the case of `O=C(Cn1nc(C(F)(F)F)cc1C(F)(F)F)N1CCC(c2nc(CCc3ccccc3)cs2)CC1` [Example I-59], the log p was 4.45^[b].
As to `O=C(Cc1c(F)ccc(F)c1F)N1CCC(c2nc(C#Cc3cccc4ccccc34)cs2)CC1` [Example I-97], the log p was 4.71^[b].
For the molecule `Cc1cc(C)n(CC(=O)N2CCC(c3nc(CCCC(C)c4ccccc4)cs3)CC2)n1` (stereo not shown) [Example I-83], the log p was 3.83^[b].
Turning to `O=C(Cn1ccc(C(F)(F)F)n1)N1CCC(c2nc(/C=C\c3ccc4ccccc4c3)cs2)CC1` [Example I-21], the log p was 4.35^[b].
The same measure, in the same setting: under `Cc1cc(C)n(CC(=O)N2CCC(c3nc(/C=C/c4ccccc4)cs3)CC2)n1` [Example I-84] stands 3.04^[b]; under `O=C(Cc1cccc(C(F)(F)F)c1)N1CCC(c2nc(CCc3ccccc3)cs2)CC1` [Example I-56], 4.26^[b]; under `O=C(Cc1cc(Br)ccc1Br)N1CCC(c2nc(C#Cc3cccc4ccccc34)cs2)CC1` [Example I-124], 5.47^[b].
The same measure, in the same setting: under `O=C(Cn1ccc(C(F)(F)F)n1)N1CCC(c2nc(/C=C\c3ccccc3)cs2)CC1` [Example I-7] stands 3.72^[b].
In the case of `Cc1cc(C(F)(F)F)nn1CC(=O)N1CCC(c2nc(CCc3ccc(Cl)cc3Cl)cs2)CC1` [Example I-123], the log p is 4.74^[b].
Turning to `Cc1cc(C(F)(F)F)nn1CC(=O)N1CCC(c2nc(CCC3CCCc4ccccc43)cs2)CC1` (stereo not shown) [Example I-133], the log p was 4.95^[b].
On to `CC(C)(C)c1cc(C(F)(F)C(F)(F)F)n(CC(=O)N2CCC(c3nc(CCc4cccc5ccccc45)cs3)CC2)n1` [Example I-112], for which the log p is 5.78^[b].
As to `CCc1cc(C(F)(F)F)nn1CC(=O)N1CCC(c2nc(C#Cc3cccc4ccccc34)cs2)CC1` [Example I-116], the log p was 4.8^[b].
Take `Cc1cc(C)n(CC(=O)N2CCC(c3nc(/C=C/c4cccc5ccccc45)cs3)CC2)n1` [Example I-77]: the log p is 3.58^[b].
Consider `CC(C)(C)c1cc(C(F)(F)C(F)(F)F)nn1CC(=O)N1CCC(c2nc(CCc3cccc4ccccc34)cs2)CC1` [Example I-113], for which the log p is 5.54^[b].
With `O=C(Cn1nc(C(F)(F)F)cc1C(F)(F)F)N1CCC(c2nc(CCc3cccc4ccccc34)cs2)CC1` [Example I-43], the log p was 4.89^[b].
With `Cc1cc(C(F)(F)F)nn1CC(=O)N1CCC(c2nc(/C=C\c3ccccc3)cs2)CC1` [Example I-1], the log p was 3.91^[b].
For `CCc1cc(CC)n(CC(=O)N2CCC(c3nc(C#Cc4cccc5ccccc45)cs3)CC2)n1` [Example I-115], the log p is 4.2^[b].
Consider `Cc1c(Cl)c(C(F)(F)F)nn1CC(=O)N1CCC(c2nc(/C=C\c3cccc4ccccc34)cs2)CC1` [Example I-19], for which the log p is 5.14^[b].
Take `Cc1cc(C)n(CC(=O)N2CCC(c3nc(/C=C\c4cccc5ccccc45)cs3)CC2)n1` [Example I-76]: the log p is 3.73^[b].
Same read-out and setting: under `CC(C)(C)c1cc(C(F)(F)F)n(CC(=O)N2CCC(c3nc(CCc4cccc5ccccc45)cs3)CC2)n1` [Example I-110] stands 5.36^[b]; under `Cc1cc(C(F)(F)F)nn1CC(=O)N1CCC(c2nc(/C=C\c3cccc(C(F)(F)F)c3)cs2)CC1` [Example I-15], 4.51^[b]; under `CCc1cc(CC)n(CC(=O)N2CCC(c3nc(CCc4cccc5ccccc45)cs3)CC2)n1` [Example I-107], 4.04^[b].
`CC(C(=O)N1CCC(c2nc(CCc3ccccc3)cs2)CC1)n1ccc(C(F)(F)F)n1` (stereo not shown) [Example I-68]: the log p is 3.93^[b].

Still in this data set, the particulars now being: method [b]: LC-MS, acidic range, pH 2.7, 0.1% aqueous formic acid and acetonitrile; HPLC on reversed-phase C 18.
For the molecule `Cc1ccccc1C#Cc1csc(C2CCN(C(=O)Cc3cc(Cl)ccc3Cl)CC2)n1` [Example I-224], the log p was 4.91^[b].
With `Cc1cc(C(F)(F)F)nn1CC(=O)N1CCC(c2nc(C=Cc3c(F)cccc3Cl)cs2)CC1` (mixture of isomers) [Example I-242], the log p was 4.48^[b].
For `C#Cc1csc(C2CCN(C(=O)Cc3cc(C)ccc3C)CC2)n1` [Example I-238], the log p was 2.93^[b];.
For the molecule `O=C(Cn1nc(C(F)(F)F)cc1C(F)(F)F)N1CCC(c2nc(CCC3CCCCC3)cs2)CC1` [Example I-140], the log p is 5.76^[b].
Consider `Cc1ccccc1C=Cc1csc(C2CCN(C(=O)Cn3nc(C(F)(F)F)cc3C(F)(F)F)CC2)n1` (mixture of isomers) [Example I-174], for which the log p is 4.93^[b].
Regarding `Cc1ccc(C)c(CC(=O)N2CCC(c3nc(C#Cc4c(C)noc4C)cs3)CC2)c1` [Example I-235], the log p was 3.67^[b].
Same read-out and setting: under `Cc1ccccc1C=Cc1csc(C2CCN(C(=O)Cn3nc(C(F)(F)F)cc3C)CC2)n1` (mixture of isomers) [Example I-166] stands 4.23^[b]; under `C#Cc1csc(C2CCN(C(=O)Cn3nc(C(F)F)cc3C(F)F)CC2)n1` [Example I-239], 2.45^[b].
Take `O=C(Cc1cc(Cl)ccc1Cl)N1CCC(c2nc(C#Cc3c(F)cccc3F)cs2)CC1` [Example I-226]: the log p was 4.52^[b].
The same measure, in the same setting: under `O=C(Cn1nc(C(F)F)cc1C(F)F)N1CCC(c2nc(C#Cc3ccccc3Br)cs2)CC1` [Example I-219] stands 4.04^[b]; under `Cc1ccc(C)c(CC(=O)N2CCC(c3nc(C#Cc4c(F)cccc4F)cs3)CC2)c1` [Example I-232], 4.36^[b].
In the case of `Cc1ccccc1C#Cc1csc(C2CCN(C(=O)Cn3nc(C(F)(F)F)cc3C(F)(F)F)CC2)n1` [Example I-212], the log p was 4.73^[b].

Still in this data set, the particulars now being: method [c]: LC-MS, neutral range, pH 7.8, 0.001 molar aqueous ammonium bicarbonate and acetonitrile.
As to `Cc1cc(C)n(CC(=O)N2CCC(c3nc(/C=C/CC(C)c4ccccc4)cs3)CC2)n1` (stereo not shown) [Example I-85], the log p was 3.83^[c].
As for `O=C(Cc1cc(Br)ccc1Br)N1CCC(c2nc(C#Cc3cccc4ccccc34)cs2)CC1` [Example I-124], the log p was 5.52^[c];.
Take `Cc1cc(C(F)(F)F)nn1CC(=O)N1CCC(c2nc(CCc3ccc(Cl)cc3Cl)cs2)CC1` [Example I-123]: the log p was 4.77^[c];.

Staying with this data set, now noted: method [c]: LC-MS, neutral range, pH 7.8, 0.001 molar aqueous ammonium bicarbonate solution and acetonitrile; HPLC on reversed-phase C 18.
With `C#Cc1csc(C2CCN(C(=O)Cc3cc(C)ccc3C)CC2)n1` [Example I-238], the log p was 2.95^[c].
On the same count and under the same terms, under `Cc1ccc(C)c(CC(=O)N2CCC(c3nc(C#Cc4c(C)noc4C)cs3)CC2)c1` [Example I-235] stands 3.71^[c];; under `O=C(Cn1nc(C(F)F)cc1C(F)F)N1CCC(c2nc(C#Cc3ccccc3Br)cs2)CC1` [Example I-219], 4.04^[c];; under `Cc1ccc(C)c(CC(=O)N2CCC(c3nc(C#Cc4c(F)cccc4F)cs3)CC2)c1` [Example I-232], 4.39^[c];.

Staying with this data set, now noted: reversed-phase HPLC column (C18); method [b]: LC-MS, acidic range, pH 2.7, 0.1% aqueous formic acid and acetonitrile.
As usually defined, the chromatographic logP is lipophilicity estimated from chromatographic retention. Low values mean lower lipophilicity, high ones higher lipophilicity. For the molecule `Cc1cc(C(F)(F)F)nn1CC(=O)N1CCC(c2nc(/C=C\c3ccc4ccccc4c3)cs2)CC1` [Example I-20, 2-[5-Methyl-3-(trifluoromethyl)-1H-pyrazol-1-yl]-1-(4-{4-[(Z)-2-(2-naphthyl)vinyl]-1,3-thiazol-2-yl}piperidin-1-yl)ethanone], the chromatographic logP worked out at 4.61.
`Cn1ncc(CC(=O)N2CCC(c3nc(CCc4ccccc4)cs3)CC2)c1Cl` [Example I-65, 2-(5-Chloro-1-methyl-1H-pyrazol-4-yl)-1-{4-[4-(2-phenylethyl)-1,3-thiazol-2-yl]piperidin-1-yl}ethanone] displayed a chromatographic logP of 2.98.
For `C#Cc1csc(C2CCN(C(=O)Cn3nc(C(F)(F)F)cc3C)CC2)n1` [Example I-86, 1-[4-(4-Ethynyl-1,3-thiazol-2-yl)piperidin-1-yl]-2-[5-methyl-3-(trifluoromethyl)-1H-pyrazol-1-yl]ethanone], the chromatographic logP was determined as 2.57.
For `Cc1c(Cl)c(C(F)(F)F)nn1C(C)C(=O)N1CCC(c2nc(CCc3ccccc3)cs2)CC1` (stereo not shown) [Example I-64, 2-[4-Chloro-5-methyl-3-(trifluoromethyl)-1H-pyrazol-1-yl]-1-{4-[4-(2-phenylethyl)-1,3-thiazol-2-yl]piperidin-1-yl}propan-1-one], the chromatographic logP was 4.62.
